The target of the experiment is T1, recombinant HIV-1 protease (Human immunodeficiency virus type 1 group M subtype B, UniProt P04585).
T1 construct: recombinant HIV-1 protease; purchased Bachem Bioscience
Description: Fluorometric (FRET) enzymatic assay for the inhibition constant (Ki) against the HIV protease. In kind it is biochemical. Conditions: pH 4.7, 30° C., substrate 10 μM, protease 18.3 nM. From the text: Enzymatic Assay for Determining the Inhibition Constant (Ki) of Synthetic Compounds Prepared Against the HIV Protease
This is a fluorometric assay based on the cleavage by protease of a substrate carrying a donor group (EDANS, excitation at 340 nm and emission at 490 nm) and an acceptor group (DABCYL) on each side of the cleavage site, interacting together through fluorescence resonance energy transfer (FRET). Cleavage of the substrate by protease stops energy exchange between the two groups, resulting in a time-dependent increase in fluorescence intensity that is linearly related to the extent of substrate hydrolysis.
The enzymatic assay is done at 30° C. in a spectrophotometer microcuvet, in a total volume of 400 μL. The apparatus used for readings is a UV-visible Cary 1 spectrophotometer made by Varian. The reaction is run first in the absence of protease inhibitors for 2 min, using 355 μL of buffer at pH 4.7 (sodium acetate 100 mM, NaCl 1 M, EDTA 1 mM, DTT 1 mM, dimethylsulfoxide 10%, and BSA 1 mg/mL), 40 μL of substrate H-2930 from Molecular Probes (final concentration 10 μM) and 5 μL of recombinant HIV-1 protease (final concentration 18.3 nM) purchased from Bachem Bioscience. Fluorescence readings at […] are taken continuously during the reaction, allowing determination of the enzyme's initial velocity (v0). At the end of the 2 min incubation, the potential inhibitor at a defined concentration in a volume of 2 μL is added to the reaction, and fluorescence readings are taken for another 2 min, allowing determination of enzyme velocity (vi) in the presence of the inhibitory compound. Several concentrations of the putative inhibitors are tested in the assay. After calculation of vo and vi, the inhibition constant (Ki) of the compound is determined using the equation of Henderson: [formula]
and [I]=inhibitor concentration, [S ]=substrate concentration, Km=Michaelis-Menten constant, Kiapp =apparent Ki
Note that the Michaelis-Menten constant of HIV protease is determined by running the assay without inhibitors, using several concentrations of substrate, and plotting the results as a Cornish-Bowden graph with the ratio substrate concentration/velocity as the ordinate and substrate concentration as the abscissa.

[1] abbreviates: Table 1, benzylated D-mannitol derivatives.
Setting [2] is: Table 3, di- and tri-substituted D-mannitol derivatives.
Setting [3] is: Table 2, tetra-substituted D-mannitol derivatives.

These results are taken from patent US6313177A, “D-mannitol derivatives as HIV aspartyl protease inhibitors” (Pharmacor Inc., priority 1999, dated 2001).

Bounds are passed on as bounds.

As a reminder, the Ki is the equilibrium dissociation constant of an inhibitor or competing ligand from its target. For the compound `N#Cc1ccc(CO[C@H](COCc2ccccc2)[C@@H](O)[C@H](O)[C@@H](COCc2ccccc2)OCc2ccc(C#N)cc2)cc1` [Compound 14, 1,6-di-O-benzyl-2,5-di-O-(4-cyanobenzyl)-D-mannitol], the Ki under setting [1] was found to be 5.4 µM. In the case of `O[C@@H]([C@H](O)[C@@H](COCc1ccccc1)OCc1ccccc1)[C@H](O)COCc1ccccc1` [Compound 98, 1,2,6-tri-O-benzyl-D-mannitol], under setting [2], the Ki was 33 µM.

As for `O[C@@H]([C@H](O)[C@@H](COCc1ccccc1)OCc1ccccn1)[C@@H](COCc1ccccc1)OCc1ccccn1` [Compound 88, 1,6-di-O-benzyl-2,5-di-O-(2-pyridylmethyl)-D-mannitol], the Ki under setting [3] amounted to 28 µM. For `CSC(=S)O[C@H](COCc1ccccc1)[C@@H](O)[C@H](O)[C@@H](COCc1ccccc1)OCc1ccc(F)cc1` [Compound 106, 1,6-di-O-benzyl-2-O-(4-fluorobenzyl)-5-O-(methylthiothioxo)-D-mannitol], the inhibitory constant (Ki) under setting [2] was above 5 µM. On to `Cc1ccc(CO[C@H](COCc2ccccc2)[C@@H](O)[C@H](O)[C@@H](COCc2ccccc2)OCc2ccc(C)cc2)cc1` [Compound 24, 1,6-di-O-benzyl-2,5-di-O-(4-methylbenzyl)-D-mannitol], for which the inhibitory constant (Ki) under setting [1] amounted to 3.7 µM. With `Cc1ccccc1CO[C@H](COCc1ccccc1F)[C@@H](O)[C@H](O)[C@@H](COCc1ccccc1F)OCc1ccccc1C` [Compound 38, 1,6-di-O-(2-fluorobenzyl)-2,5-di-O-(2-methylbenzyl)-D-mannitol], the inhibition constant Ki under setting [1] worked out at 0.8 µM. On the same count and under the same terms, in the case of `O[C@@H]([C@H](O)[C@@H](COCc1ccccc1F)OCc1ccc(F)cc1)[C@@H](COCc1ccccc1F)OCc1ccccc1` [Compound 62, 1,6-di-O-(2-fluorobenzyl)-2-O-benzyl-5-O-(4-fluorobenzyl)-D-mannitol] it was 0.22 µM. Regarding `O=Cc1ccc(CO[C@H](COCc2ccccc2)[C@@H](O)[C@H](O)[C@@H](COCc2ccccc2)OCc2ccc(C=O)cc2)cc1` [Compound 49, 1,6-di-O-benzyl-2,5-di-O-(4-formylbenzyl)-D-mannitol], under setting [1], the inhibitory constant (Ki) was 28 µM. As to `O[C@@H]([C@H](O)[C@@H](COCc1ccccc1)OCc1ccc(Cl)cc1)[C@@H](COCc1ccccc1)OCc1ccc(Cl)cc1` [Compound 17, 1,6-di-O-benzyl-2,5-di-O-(4-chlorobenzyl)-D-mannitol], the Ki under setting [1] is 2 µM.

Regarding `O=C(O)c1ccc(CO[C@H](COCc2ccccc2)[C@@H](O)[C@H](O)[C@@H](COCc2ccccc2)OCc2ccc(C(=O)O)cc2)cc1` [Compound 43, 1,6-di-O-benzyl-2,5-di-O-(4-carboxybenzyl)-D-mannitol], the Ki under setting [1] is 26 µM. On to `O[C@@H]([C@H](O)[C@@H](COCc1ccc(C(F)(F)F)cc1)OCc1ccccc1)[C@@H](COCc1ccc(C(F)(F)F)cc1)OCc1ccccc1` [Compound 27, 1,6-di-O-(4-trifluoromethylbenzyl)-2,5-di-O-benzyl-D-mannitol], for which the Ki under setting [1] is above 2 µM. In the case of `CC(C)COC(=O)c1ccc(COC[C@@H](OCc2ccccc2)[C@@H](O)[C@H](O)[C@@H](COCc2ccc(C(=O)OCC(C)C)cc2)OCc2ccccc2)cc1` [Compound 30, 1,6-di-O-(4-carboisobutoxybenzyl)-2,5-di-O-benzyl D-mannitol], the Ki under setting [1] is above 3 µM. On the same count and under the same terms, in the case of `COC(=O)c1ccc(CO[C@H](COCc2ccccc2)[C@@H](O)[C@H](O)[C@@H](COCc2ccccc2)OCc2ccc(C(=O)O)cc2)cc1` [Compound 59, 1,6-di-O-benzyl-2-O-(4-carboxybenzyl)-5-O-(4-carbomethoxybenzyl)-D-mannitol] it was 1.4 µM. As for `O[C@@H]([C@H](O)[C@@H](COCc1ccccc1)OCc1ccc(F)cc1F)[C@@H](COCc1ccccc1)OCc1ccc(F)cc1F` [Compound 23, 1,6-di-O-benzyl-2,5-di-O-(2,4-difluorobenzyl)-D-mannitol], the Ki under setting [1] was determined as 2.6 ± 0.5 µM. Consider `O[C@@H]([C@H](O)[C@@H](COCc1cccs1)OCc1ccc(F)cc1)[C@@H](COCc1cccs1)OCc1ccc(F)cc1` [Compound 93, 1,6-di-O-(2-thienylmethyl)-2,5-di-O-(4-fluorophenylmethyl)-D-mannitol], for which the Ki under setting [3] was found to be 0.4 µM.
